In ChEMBL document CHEMBL1125268, “Targeting renal dipeptidase (dehydropeptidase I) for inactivation by mechanism-based inactivators” (J Med Chem, 1991):

Tests used:
[1] = target: T1, Dipeptidase 1 (Sus scrofa) (UniProt P22412); test: The catalytic constant of the enzyme Renal dipeptidase was reported.
T1 sequence (whole entry): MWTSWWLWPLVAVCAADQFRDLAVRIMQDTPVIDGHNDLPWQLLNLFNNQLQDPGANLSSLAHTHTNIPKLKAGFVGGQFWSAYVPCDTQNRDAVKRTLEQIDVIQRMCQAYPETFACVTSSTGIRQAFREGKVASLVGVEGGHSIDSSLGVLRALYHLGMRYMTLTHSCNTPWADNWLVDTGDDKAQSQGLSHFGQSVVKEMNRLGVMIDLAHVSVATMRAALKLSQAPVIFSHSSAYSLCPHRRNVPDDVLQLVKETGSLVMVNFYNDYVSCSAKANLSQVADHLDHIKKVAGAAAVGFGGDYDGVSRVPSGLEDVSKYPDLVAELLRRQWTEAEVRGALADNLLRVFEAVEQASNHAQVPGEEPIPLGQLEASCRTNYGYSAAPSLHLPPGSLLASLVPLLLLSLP

[2] = target: T1, Dipeptidase 1 (Sus scrofa); test: The double -reciprocal analysis of the pseudo-first -order inactivation rates verses the inhibitor concentrations were calculated for Renal dipeptidase
[3] = target: T1, Dipeptidase 1 (Sus scrofa); test: The catalytic constant of the enzyme Inactivator of Renal dipeptidase was reported.
[4] = target: T1, Dipeptidase 1 (Sus scrofa); test: The double -reciprocal analysis of the pseudo-first -order inactivation rates verses the inhibitor concentrations were calculated for Inactivator of Renal dipeptidase
[5] = compound: C=C(NC(=O)CC#N)C(=O)O; test: Michaelis-Menten constant was reported for the compound against Inactivator of Renal dipeptidase
[6] = substrate: C=C(CC(=O)CC#N)C(=O)O; test: (§1) Michaelis-Menten constant was reported for the compound against Renal dipeptidase
[7] = substrate: C=C(NC(=O)CBr)C(=O)O; test: as §1

C=C(NC(=O)CBr)C(=O)O
k cat [1]: 0.538 s⁻¹

C=C(CC(=O)CC#N)C(=O)O
K inact [2]: 0.151 min⁻¹ | k cat [1]: 0.55 s⁻¹

C=C(NC(=O)CC#N)C(=O)O
k cat [3]: 0.25 s⁻¹ | K inact [4]: 0.277 min⁻¹

B1: Dipeptidase 1 (Sus scrofa), P22412 (protein)
chain: T1 sequence (whole entry)
Km [5]: 416 µM | Km [6]: 10300 µM | Km [7]: 740 µM
